Results from PMC8994671 (ACS infectious diseases, 2017).
≈ marks a conversion by molar mass, not a printed value. Like-named read-outs stand apart in the source and are kept apart here.

Columns and labels:
C. neoformans = test: In vitro antifungal susceptibility testing; type: cell-based, Cryptococcus neoformans; conditions: for MIC: Cryptococcus neoformans, read-out: C. neoformans MIC; for C. neoformans MIC: Table 1, highest value of at least three biological replicates
[1] = system: calmodulin-dependent localization of Crz1; test: Crz1 nuclear translocation assay; type: cell-based, Cryptococcus neoformans; conditions: shift to 37°C
[2] = system: calmodulin-dependent localization of Crz1; conditions: assay validation; cited from earlier work
C. albicans [3] = test: In vitro antifungal susceptibility testing; type: cell-based; conditions: Candida albicans, SC5314, read-out: C. albicans MIC
C. albicans [4] = conditions: cited from earlier work

SMILES	MIC (C. neoformans) [µg/mL]	C. neoformans MIC (C. neoformans) [µg/mL]	other results
CN1CCN(CCCN2c3ccccc3Sc3ccc(Cl)cc32)CC1 [Prochlorperazine (7), Prochlorperazine]	64 (≈ 171 µM)		
CN(C)CCCN1c2ccccc2Sc2ccccc21 [Promazine (2), Promazine]	64 (≈ 225 µM)		
CN1CCN(CCCN2c3ccccc3Sc3ccc(C(F)(F)F)cc32)CC1 [Trifluoperazine, TFP (8), Trifluoperazine]	16 (≈ 39.3 µM)	16	Effect on Crz1 localization ([1]; higher concentrations than 2 μg/mL, Fig. 1B): reduce localization significantly; Effect on Crz1 localization ([1]; sub-inhibitory concentration 2 μg/mL): fail to affect Crz1 localization; Effect on nuclear localization of Crz1 [2]: reduce nuclear localization of Crz1; MIC (C. albicans [3]): > 32 µg/mL
OCCN1CCN(CCCN2c3ccccc3Sc3ccc(C(F)(F)F)cc32)CC1 [Fluphenazine (10), Fluphenazine]	8 (≈ 18.3 µM)	8	
C=CC[C@@H]1/C=C(\C)C[C@H](C)C[C@H](OC)[C@H]2O[C@@](O)(C(=O)C(=O)N3CCCC[C@H]3C(=O)O[C@H](/C(C)=C/[C@@H]3CC[C@@H](O)[C@H](OC)C3)[C@H](C)[C@@H](O)CC1=O)[C@H](C)C[C@@H]2OC [FK506]			Effect on nuclear localization of Crz1 [2]: reduce nuclear localization of Crz1
CC/C(=C(\c1ccccc1)c1ccc(OCCN(C)C)cc1)c1ccccc1 [tamoxifen]			Effect on nuclear localization of Crz1 [2]: reduce nuclear localization of Crz1
CN(C)CCCN1c2ccccc2Sc2ccc(Cl)cc21 [Chlorpromazine (3), Chlorpromazine]	25 (≈ 78.4 µM)		
CN(C)CCCN1c2ccccc2Sc2ccc(C(F)(F)F)cc21 [Triflupromazine (4), Triflupromazine]	32 (≈ 90.8 µM)		
OC(Cn1cncn1)(Cn1cncn1)c1ccc(F)cc1F [FLU, Fluconazole]			C. albicans MIC (C. albicans [4]; strain SC5314): 0.25 µg/mL; C. albicans MIC (C. albicans [4]; strain TWO7229): 0.25 µg/mL; C. albicans MIC (C. albicans [4]; strain TWO7230): 2 µg/mL; C. albicans MIC (C. albicans [4]; strain TWO7241): 16 µg/mL; C. albicans MIC (C. albicans [4]; strain TWO7243): 128 µg/mL
CCN(CC)CCCCN1c2ccccc2Oc2ccc(Cl)cc21 [Compound 12]		8	
CSc1ccc2c(c1)N(CCC1CCCCN1C)c1ccccc1S2 (stereo not shown) [Thioridazine, THZ (1), Thioridazine]	16 (≈ 43.2 µM)	16	
